From patent publication US20080249186A1, “Fungicidal Composition” (GIVAUDAN SA, priority 2005, published 2008)

Columns and labels:
Fusarium oxysporum = assay: Checkerboard titration / MIC determination in microtiter plates (turbidity, fungal growth); assay type: cell-based; settings: agent alone; percent by weight
Protocol: (§1) A test system was set up with two of most common soil inhabitating plant pathogenic fungi causing high losses in green houses: Fusarium oxysporum, and Rhizoctonia solani. Garlic oil was used as the source of allyl sulphides.
(§2) The synergistic action between this oil and eugenol or thymol was tested in Checkerboard titration experiments. The ‘checkerboard’ is the inhibitory pattern found for multiple combinations of two antimicrobial agents in concentrations equal to, above, and below their minimal inhibitory concentration for the organism being tested. These multiple combinations of antimicrobial agents are prepared in microtiter plates. The checkerboard consists then of columns which contain the same amount of one antimicrobial which is diluted along the x-axis and rows which each contain the same amount of the other antimicrobial (diluted along the y-axis). Thus, each well of the microtiter plate is a unique combination of the two agents.
(§3) A method of quantitating synergy is the ‘fractional inhibitory concentration’ (FIC) index. For each row, the FIC index is calculated from the lowest concentration of agents necessary to inhibit growth. The FIC of each agent is derived by dividing the concentration of the agent present in that well of the microtiter plate by the minimal inhibitory concentration (MIC) needed of that agent alone to inhibit the organism. The FIC index is then the sum of these values for both antibacterial agents in that well of the microtiter plate. Fractional inhibitory concentration indices are then used as measure of synergy. The FIC index is calculated for each row as follows:
(§4) where MICa, MICb are the minimal inhibitory concentration (MIC) of compound A and B in the mixture, and MICA, MICB are the MIC of A and B when used alone. When the lowest FIC index obtained in a microtiter plate in this way is less than 1, the combination is synergistic. When the FIC index is 1, the combination is additive.
(§5) All examples were made using routine techniques for MIC determination. The dilutions of the active agents were prepared in dimethylsulfoxide, and 2 μl aliquots of the different stock solutions of each of the two agents were then added to individual wells of the microtiter plates to obtain the desired checkerboard as described above. Fungi were swabbed from agar plates and suspended in 10 ml of Sabouraud liquid medium. The fungal suspensions was diluted 20 fold in the same growth medium. To each well of the microtiter plates 100 μl of such a diluted suspension of the test organism was distributed. The plates were covered with plastic films and incubated for 48 h at 30° C. with shaking at 250 rpm. The turbidity was then measured with a microplate reader to determine fungal growth. […]

Rhizoctonia solani = assay: as above; assay type: cell-based; settings: agent alone; percent by weight
Protocol: as §1, §2, §3, §4, §5

MIC of pure compounds, F. oxysporum (Fusarium oxysporum) [%]	MIC of pure compounds, R. solani (Rhizoctonia solani) [%]	SMILES
0.05	0.025	C=CCc1ccc(O)c(OC)c1 [eugenol, 4-hydroxy-3-methoxy-1-allylbenzene]
0.05	0.0125	Cc1ccc(C(C)C)c(O)c1 [thymol, 1-methyl-3-hydroxy-4-iso-propylbenzene]
